Reference: ChEMBL document CHEMBL3421586, “1,19-seco-Avermectin analogues from a ΔaveCDE mutant Streptomyces avermectinius strain” (J Nat Prod, 2015)
Counter-ions that a name gives are not always drawn.

Experiments:
Assay type in all cases: functional, cell-based
[1] = Growth inhibition of human Saos2 cells by MTT method; conditions: SAOS-2
[2] = Growth inhibition of human MG63 cells by MTT method; conditions: MG-63
[3] = system: B16; assay: Growth inhibition of mouse B16 cells by MTT method

Row | Compound | IC50 [1] [µM] | IC50 [2] [µM] | IC50 [3] [µM]
1 | CC[C@H](C)[C@H]1O[C@@]2(CCC[C@@H](C/C=C(\C)[C@@H](O[C@H]3C[C@H](OC)[C@@H](O)[C@H](C)O3)[C@@H](C)/C=C/C=C(\C)c3cc(O)c(C)cc3C(=O)O)O2)C[C@H](O)[C@@H]1C | 0.7 | 1.7 | 40.6
2 | CC[C@H](C)[C@H]1O[C@]2(C=C[C@@H]1C)C[C@@H]1C[C@@H](C/C=C(\C)[C@@H](O[C@H]3C[C@H](OC)[C@@H](O[C@H]4C[C@H](OC)[C@@H](O)[C@H](C)O4)[C@H](C)O3)[C@@H](C)/C=C/C=C3\CO[C@@H]4[C@H](O)C(C)=C[C@@H](C(=O)O1)[C@]34O)O2 [ABAMECTIN COMPONENT B1A] | 14.7 | 8.6 | 20.5
3 | CC[C@H](C)[C@H]1O[C@@]2(C=CC[C@@H](C/C=C(\C)[C@@H](O)[C@@H](C)/C=C/C=C(\C)c3cc(O)c(C)cc3C(=O)O)O2)C=C[C@@H]1C | 2.5 | 6.9 | 35.1
4 | COc1cccc2c1C(=O)c1c(O)c3c(c(O)c1C2=O)C[C@@](O)(C(=O)CO)C[C@@H]3O[C@H]1C[C@H](N)[C@H](O)[C@H](C)O1 [DOXORUBICIN HYDROCHLORIDE] | 4.2 | 5.2 | 6.4
5 | CC[C@H](C)[C@H]1O[C@@]2(CCC[C@@H](C/C=C(\C)[C@@H](O)[C@@H](C)/C=C/C=C(\C)c3cc(O)c(C)cc3C(=O)O)O2)C[C@H](O)[C@@H]1C | 1.9 | 5.1 | 14.7
